{"source": "patent US20080039431A1", "about": "“Method of improving plant growth by reducing viral infections” (priority 2006, published 2008)", "key": {"[1]": {"test_system": "tomato spotted wilt virus (TSWV)", "experiment": "Tobacco drench / broadcast spray trial (Example 8)", "format": "in vivo, tobacco (Nicotiana tabacum)", "conditions": "acibenzolar-S-methyl 2.47 g ai/Ha broadcast spray", "description": "Cultivation—A trial on tobacco (Nicotiana tabacum) was initiated in Molino, Fla., to see if drenches of prothioconazole alone and in combination with the insecticide imidacloprid could control TSWV in tobacco. Plants of cultivar C-371 Gold were transplanted on April 28 into 9.1 meter plots with three replications. All eight treatments were applied after transplanting on May 1. Foliar treatments were applied as a broadcast spray, while drenches were applied as in Example 6. Acibenzolar-S-methyl is a plant defense activator used to control TSWV in tobacco.\nTreatments— • Untreated • Imidacloprid@0.01 g imidacloprid/plant • Imidacloprid@0.015 g Imidacloprid/plant • Prothioconazole@0.0084 g active ingredient/plant • Prothioconazole@0.0084 g active ingredient/plant+Imidacloprid@0.01 g imidacloprid/plant • Prothioconazole@0.0084 g active ingredient/plant+Imidacloprid@0.015 g […] label. • Acibenzolar-S-methyl@2.47 g active ingredient/Ha as a broadcast spray as per label.\nTSWV rating—For TSWV incidence determination the percentage of plants with TSWV symptoms (chlorosis and stunting) was determined for the eight treatments as in Example 6."}, "[2]": {"test_system": "tomato spotted wilt virus (TSWV)", "experiment": "Replicated tomato drench trial (Example 6)", "format": "in vivo, tomato (Lycopersicon esculentum MILL.)", "conditions": "prothioconazole 0.0084 g ai/plant, imidacloprid 0.01 g/plant; for Percent control of incidence of TSWV in tomatoes: Abbott's formula; for Percent incidence of TSWV in tomatoes: drench", "procedure": "Cultivation—A replicated trial on tomato (Lycopersicon esculentum MILL.) was initiated in Molino, Fla. to determine if drenches of prothioconazole alone and in combination with the insecticide imidacloprid would suppress TSWV in tomato. Tomato plants, cultivar FL 47 were transplanted on April 11 into 4 rows, each 9.1 meters long, 60 plants per plot, with three replications. Treatments were applied, into a shallow bowl dug at the base of each plant, as a drench in 40 ml water per plant (6 days after transplanting) on April 17. Treatments— • Untreated—no in-furrow treatment • Imidacloprid@0.01 g imidacloprid/plant. • Prothioconazole—prothioconazole@0.0084 g active ingredient/plant. • Prothioconazole+Imidacloprid—prothioconazole@0.0084 g active ingredient/plant+imidacloprid@0.01 g imidacloprid/plant. TSWV rating—University researchers recommend buffers in TSWV testing. Therefore, the center two rows (30 plants) per plot were used for virus ratings with the outer two rows acting as buffers. TSWV incidence determinations were made based on the presence or absence of TSWV symptoms (chlorosis and stunting) per plant. The four treatments were rated at 21, 29, and 39 days after treatment. Synergy formula—The Colby formula for proof of synergy was used in Example 6. The percent incidence values were converted to percent control with Abbotts's formula (1-treated/untreated)*100. Percent control values for solo treatment X and solo treatment Y, were entered into the Colby formula. When the value determined from the plots with both treatment X and Y applied together is greater than the value determined by the Colby formula then synergy is indicated. The formula is: X+Y−(X*Y/100)."}, "[3]": {"test_system": "tomato spotted wilt virus (TSWV)", "experiment": "Bell pepper drench trial (Example 7)", "format": "in vivo, bell pepper (Capsicum annum L.)", "conditions": "for Percent control of incidence of TSWV in bell peppers: Abbott's formula; for Percent incidence TSWV in bell peppers: drench, prothioconazole 0.0084 g ai/plant, imidacloprid 0.01 g/plant", "procedure": "Cultivation—A trial on bell pepper (Capsicum annum L.) was initiated in Molino, Fla. to see if drenches of prothioconazole alone and in combination with the insecticide imidacloprid could control TSWV in pepper. Bell pepper plants were transplanted on April 11 into 9.1 meter plots with three replications as in Example 6. Treatments were applied as a drench in 40 ml water per plant (7 days after transplanting) on April 18 as in Example 6.\nTreatments— • Untreated—no in-furrow treatment. • Imidacloprid—imidacloprid@0.01 g imidacloprid/plant. • Prothioconazole—prothioconazole@0.0084 g prothioconazole/plant. • Prothioconazole+Imidacloprid—prothioconazole@0.0084 g active ingredient/plant+imidacloprid@0.01 g imidacloprid/plant.\nTSWV rating—For TSWV incidence determination, the percentage of plants with TSWV symptoms (chlorosis and stunting) was determined for the four treatments at 21, 29, 38, and 47 days after treatment as in Example 6.\nSynergy formula—The Colby formula for proof of synergy was used in Example 7 as in Example 6."}, "[4]": {"conditions": "14 days after treatment, prothioconazole 0.0084 g ai/plant, imidacloprid 0.01 g/plant (drench)"}, "[5]": {"conditions": "21 days after treatment, prothioconazole 0.0084 g ai/plant, imidacloprid 0.01 g/plant (drench)"}, "[6]": {"conditions": "38 days after treatment, prothioconazole 0.0084 g ai/plant, imidacloprid 0.01 g/plant (drench)"}}}
{"smiles": "CSC(=O)c1cccc2nnsc12", "note": "[acibenzolar-S-methyl]", "values": [{"measurement": "Percent incidence TSWV in tobacco", "setting": "[1]; [4]", "value": 36.7, "unit": "%"}, {"measurement": "Percent incidence TSWV in tobacco", "setting": "[1]; [5]", "value": 46.7, "unit": "%"}, {"measurement": "Percent incidence TSWV in tobacco", "setting": "[1]; [6]", "value": 53.9, "unit": "%"}]}
{"smiles": "O=[N+]([O-])NC1=NCCN1Cc1ccc(Cl)nc1", "note": "[Imidacloprid, imidacloprid]", "values": [{"measurement": "Percent control of incidence of TSWV in tomatoes", "setting": "[2]; 21 days after treatment", "value": 65.07, "unit": "%"}, {"measurement": "Percent incidence of TSWV in tomatoes", "setting": "[2]; 21 days after treatment", "value": 10.2, "unit": "%"}, {"measurement": "Percent control of incidence of TSWV in tomatoes", "setting": "[2]; 29 days after treatment", "value": 50.52, "unit": "%"}, {"measurement": "Percent incidence of TSWV in tomatoes", "setting": "[2]; 29 days after treatment", "value": 33.4, "unit": "%"}, {"measurement": "Percent control of incidence of TSWV in tomatoes", "setting": "[2]; 39 days after treatment", "value": 41.30, "unit": "%"}, {"measurement": "Percent incidence of TSWV in tomatoes", "setting": "[2]; 39 days after treatment", "value": 49.6, "unit": "%"}, {"measurement": "Percent control of incidence of TSWV in bell peppers", "setting": "[3]; 21 days after treatment", "value": 26.14, "unit": "%"}, {"measurement": "Percent incidence TSWV in bell peppers", "setting": "[3]; 21 days after treatment", "value": 17.8, "unit": "%"}, {"measurement": "Percent control of incidence of TSWV in bell peppers", "setting": "[3]; 29 days after treatment", "value": 45.84, "unit": "%"}, {"measurement": "Percent incidence TSWV in bell peppers", "setting": "[3]; 29 days after treatment", "value": 25.4, "unit": "%"}, {"measurement": "Percent control of incidence of TSWV in bell peppers", "setting": "[3]; 38 days after treatment", "value": 25.49, "unit": "%"}, {"measurement": "Percent incidence TSWV in bell peppers", "setting": "[3]; 38 days after treatment", "value": 38.3, "unit": "%"}, {"measurement": "Percent control of incidence of TSWV in bell peppers", "setting": "[3]; 47 days after treatment", "value": 19.32, "unit": "%"}, {"measurement": "Percent incidence TSWV in bell peppers", "setting": "[3]; 47 days after treatment", "value": 42.6, "unit": "%"}, {"measurement": "Increase of TSWV level from 38 DAT to 47 DAT", "setting": "[3]; bell pepper, untreated increased by 1.4 percent", "value": "roughly 4.5%"}, {"measurement": "Percent incidence TSWV in tobacco", "setting": "[1]; 14 days after treatment, imidacloprid 0.015 g/plant, prothioconazole 0.0084 g ai/plant (drench)", "value": 23.9, "unit": "%"}, {"measurement": "Percent incidence TSWV in tobacco", "setting": "[1]; [4]", "value": 23.9, "unit": "%"}, {"measurement": "Percent incidence TSWV in tobacco", "setting": "[1]; 21 days after treatment, imidacloprid 0.015 g/plant, prothioconazole 0.0084 g ai/plant (drench)", "value": 25.5, "unit": "%"}, {"measurement": "Percent incidence TSWV in tobacco", "setting": "[1]; [5]", "value": 24.4, "unit": "%"}, {"measurement": "Percent incidence TSWV in tobacco", "setting": "[1]; 38 days after treatment, imidacloprid 0.015 g/plant, prothioconazole 0.0084 g ai/plant (drench)", "value": 45.5, "unit": "%"}, {"measurement": "Percent incidence TSWV in tobacco", "setting": "[1]; [6]", "value": 45.0, "unit": "%"}]}
